# Data published in patent EP0889886B1, “NOVEL PHENANTHRIDINES SUBSTITUTED IN THE 6 POSITION” (ALTANA Pharma AG, priority 1996, dated 1997).
# Structures can show the parent of a compound that is named as a salt.
# Tested on: PDE IV
# Assay: Inhibition of PDE IV activity (method of Bauer and Schwabe, adapted to microtiter plates)
# Assay type: biochemical
# Settings: Hemmung der PDE IV-Aktivität
# Procedure: Hierbei erfolgt im ersten Schritt die PDE-Reaktion. In einem zweiten Schritt wird das entstandene 5'-Nukleotid durch eine 5'-Nukleotidase des Schlangengiftes von Crotalus Atrox zum ungeladenen Nukleosid gespalten. Im dritten Schritt wird das Nukleosid auf lonenaustauschsäulen vom verbliebenen geladenen Substrat getrennt. Die Säulen werden mit 2 ml 30 mM Ammoniumformiat (pH 6,0) direkt in Minivials eluiert, in die noch 2 ml Szintillatorflüssigkeit zur Zählung gegeben wird.
row,SMILES,-log IC50
1,"CCOc1cc2c(cc1OCC)[C@H]1CCCC[C@H]1N=C2c1ccc(OC(F)(F)F)cc1 (racemic) [Verbindung 19, (+/-)-cis-8,9-Diethoxy-6-(4-trifluormethoxyphenyl)-1,2,3,4,4a,10b-hexahydrophenanthridin]",7.97
2,"COc1cc2c(cc1OC1CCCC1)C(c1ccc(NS(=O)(=O)c3ccc(C)cc3)cc1)=N[C@@H]1CCCC[C@H]21 (racemic) [Verbindung 4, (+/-)-cis-8-Cyclopentyloxy-9-methoxy-6-(4-p-toluolsulfonamidophenyl)-1,2,3,4,4a,10bhexahydrophenanthridin]",6.12
3,"CCOc1cc2c(cc1OCC)[C@H]1CCCC[C@H]1N=C2c1ccc(F)cc1 (racemic) [Verbindung 16, (+/-)-cis-8,9-Diethoxy-6-(4-fluorphenyl)-1,2,3,4,4a,10b-hexahvdrophenanthridin]",7.93
4,"CCOc1cc2c(cc1OC)C(c1ccc(N)cc1)=N[C@H]1CCCC[C@@H]21 (racemic) [Verbindung 29, (+/-)-cis-9-Ethoxy-8-methoxy-6-(4-aminophenyl)-1,2,3,4,4a,10b-hexahydrophenanthridin]",7.69
5,"CCOc1cc2c(cc1OC)C(c1ccc(NS(=O)(=O)c3ccc(C(=O)OC)cc3)cc1)=N[C@@H]1CCCC[C@H]21 (racemic) [Verbindung 23, (+/-)-cis-9-Ethoxy-8-methoxy-6-[4-(4-methoxycarbonylphenyl)sulfonamidophenyl]-1,2,3,4,4a,10b-hexahvdrophenanthridin Hydrochlorid]",8.70
6,"COc1ccc(C2=N[C@H]3CCCC[C@H]3c3cc(OC)c(OC)cc32)cc1OC (racemic) [Verbindung 7, (+/-)-cis-8,9-Dimethoxy-6-(3,4-dimethoxyphenyl)-1,2,3,4,4a,10b-hexahydrophenanthridin]",6.44
7,"CCOc1cc2c(cc1OCC)[C@H]1CCCC[C@H]1N=C2c1ccc(N(C(C)=O)S(=O)(=O)c2ccc(C)cc2)cc1 (racemic) [Verbindung 35, (+/-)-cis-8,9-Diethoxy-6-[(N-acetyl-4-p-toluolsulfonamido]phenyl]-1,2,3,4,4a,10b-hexahydrophenanthridin]",7.81
8,"CCOc1cc2c(cc1OC)C(c1ccc([N+](=O)[O-])cc1)=N[C@H]1CCCC[C@@H]21 (racemic) [Verbindung 21, (+/-)-cis-9-Ethoxy-8-methoxy-6-(4-nitrophenyl)-1,2,3,4,4a,10b-hexahydrophenanthridin]",8.46
9,"CCOc1cc2c(cc1OC)C(c1ccc(S(C)(=O)=O)cc1)=N[C@H]1CCCC[C@@H]21 (racemic) [Verbindung 22, (+/-)-cis-9-Ethoxy-8-methoxy-6-(4-methansulfonylphenyl)-1,2,3,4,4a,10b-hexahydrophenanthridin]",8.66
10,"CCOc1cc2c(cc1OCC)[C@@H]1CCCC[C@@H]1N=C2c1ccc(OC(C)=O)cc1 (racemic) [Verbindung 13, (+/-)-cis-6-(4-Acetoxyphenyl)-8,9-diethoxy-1,2,3,4,4a,10b-hexahydrophenanthridin]",8.43
11,"CCOc1cc2c(cc1OCC)[C@H]1CCCC[C@H]1N=C2c1ccc(Cl)nc1 (racemic) [Verbindung 26, (+/-)-cis-8,9-Diethoxy-6-(2-chiorpyrid-5-yl)-1,2,3,4,4a,10b-hexahydrophenanthridin]",8.41
12,"COc1cc2c(cc1OC)[C@H]1CCCC[C@H]1N=C2c1ccc(N(C(C)=O)S(=O)(=O)c2ccc(C)cc2)cc1 (racemic) [Verbindung 34, (+/-)-cis-8,9-Dimethoxy-6-[(N-acetyl-4-p-toluolsulfonamido)phenyl]-1,2,3,4,4a,10b-hexahydrophenanthridin]",7.42
13,"COc1cc2c(cc1OC1CCCC1)[C@H]1CCCC[C@H]1N=C2c1ccc(NS(=O)(=O)c2ccc(C)cc2)cc1 (racemic) [Verbindung 3, (+/-)-cis-9-Cyclopentyloxy-8-methoxy-6-(4-p-toluolsulfonamidophenyl)-1,2,3,4,4a,10bhexahydrophenanthridin]",7.76
14,"CCOc1cc2c(cc1OCC)[C@@H]1CCCC[C@@H]1N=C2c1cccnc1.Cl (racemic) [Verbindung 25, (+/-)-cis-8,9-Diethoxy-6-(pyrid-3-yl)-1,2,3,4,4a,10b-hexahydrophenanthridin-hydrochlorid]",7.96
15,"COc1cc2c(cc1OC)[C@H]1CCCC[C@H]1N=C2c1ccc(NS(=O)(=O)c2ccc(C)cc2)cc1 (racemic) [Verbindung 1, (+/-)-cis-8,9-Dimethoxy-6-(4-p-toluolsulfonamidophenyl)-1,2,3,4,4a,10b-hexahydrophenanthridin]",7.73
16,"COc1cc2c(cc1OC)[C@H]1CCCC[C@H]1N=C2c1c(Cl)cccc1Cl (racemic) [Verbindung 6, (+/-)-cis-8,9-Dimethoxy-6-(2,6-dichlorphenyl)-1,2,3,4,4a,10b-hexahydrophenanthridin]",6.77
17,"COc1cc2c(cc1OC)[C@@H]1CCCC[C@@H]1N=C2c1ccc(N(S(=O)(=O)c2ccc([N+](=O)[O-])cc2)S(=O)(=O)c2ccc([N+](=O)[O-])cc2)cc1 (racemic) [Verbindung 30, (+/-)-cis-8,9-Dimethoxy-6-[4-bis(p-nitrophenylsulfonyl)aminophenyl]-1,2,3,4,4a,10b-hexahydrophenanthridin]",7.36

row,SMILES,-log IC50
1,"CCOc1cc2c(cc1OCC)[C@@H]1CCCC[C@@H]1N=C2c1ccc(-c2ccccc2)cc1 (racemic) [Verbindung 15, (+/-)-cis-6-Biphenyl-8,9-diethoxy-1,2,3,4,4a,10b-hexahydrophenanthridin]",7.98
2,"CCOc1cc2c(cc1OCC)[C@@H]1CCCC[C@@H]1N=C2c1ccncc1.Cl.Cl (racemic) [Verbindung 24, (+/-)-cis-8,9-Diethoxy-6-(pyrid-4-yl)-1,2,3,4,4a,10b-hexahydrophenanthridin-dihydrochlorid]",8.08
3,"COc1cc2c(cc1OC)[C@H]1CC(C)=C(C)C[C@H]1N=C2c1ccc(NS(=O)(=O)c2ccc(C)cc2)cc1 (racemic) [Verbindung 8, (+/-)-cis-8,9-Dimethoxy-2,3-dimethyl-6-(4-p-toluolsulfonamidophenyl)-1,4,4a,10b-tetrahydrophenanthridin]",6.91
4,"COc1cc2c(cc1OC)[C@@H]1CCCC[C@@H]1N=C2c1ccc(NC(C)=O)cc1 (racemic) [Verbindung 31, (+/-)-cis-8,9-Dimethoxy-6-(4-acetamidophenyl)-1,2,3,4,4a,10b-hexahydrophenanthridin]",7.30
5,"CCOc1cc2c(cc1OCC)[C@@H]1CCCC[C@@H]1N=C2c1ccc(C#N)cc1 (racemic) [Verbindung 18, (+/-)-cis-8,9-Diethoxy-6-(4-cyanophenyl)-1,2,3,4,4a,10b-hexahydrophenanthridin]",8.24
6,"CCOc1cc2c(cc1OC)C(c1ccc(NS(=O)(=O)c3ccc(C)cc3)cc1)=N[C@@H]1CCCC[C@H]21 (racemic) [Verbindung 20, (+/-)-cis-9-Ethoxy-8-methoxy-6-(4-p-toluolsulfonamidophenyl)-1,2,3,4,4a,10b-hexahydrophenanthridin]",9.05
7,"COc1cc2c(cc1OC)C1CC=CCC1N=C2c1ccc(NS(=O)(=O)c2ccc(C)cc2)cc1 (racemic) [Verbindung 10, (+/-)-trans-8,9-Dimethoxy-6-(4-p-toluolsulfonamidophenyl)-1,4,4a,10b-tetrahydrophenanthridin-hydrochlorid]",6.10
8,"CCOc1cc2c(cc1OC)C(c1ccc(NC(C)=O)cc1)=N[C@H]1CCCC[C@@H]21 (racemic) [Verbindung 32, (+/-)-cis-9-Ethoxy-8-methoxy-6-(4-acetamidophenyl)-1,2,3,4,4a,10b-hexahydrophenanthridin]",8.38
9,"CCOc1cc2c(cc1OCC)[C@H]1CCCC[C@H]1N=C2c1ccc(NS(=O)(=O)c2ccc(C)cc2)cc1 (racemic) [Verbindung 2, (+/-)-cis-8,9-Diethoxy-6-(4-p-toluolsulfonamidophenyl)-1,2,3,4,4a,10b-hexahydrophenanthridin]",8.39
10,"CCOc1cc2c(cc1OCC)[C@@H]1CCCC[C@@H]1N=C2c1ccc(O)nc1 (racemic) [Verbindung 27, (+/-)-cis-8,9-Diethoxy-6-(2-hydroxypyrid-5-yl)-1,2,3,4,4a,10b-hexahydrophenanthridin]",6.66
11,"CCOc1cc2c(cc1OCC)[C@H]1CCCC[C@H]1N=C2c1ccc(C(F)(F)F)cc1 (racemic) [Verbindung 17, (+/-)-cis-8,9-Diethoxy-7-(4-trifluormethylphenyl)-1,2,3,4,4a,10b-hexahydrophenanthridin]",8.00
12,"COc1cc2c(cc1OC)C1CCCCC1N=C2c1ccc(NS(=O)(=O)c2ccc(C)cc2)cc1 (racemic) [Verbindung 9, (+/-)-trans-8,9-Dimethoxy-6-(4-p-toluolsulfonamidophenyl)-1,2,3,4,4a,10b-hexahydrophenanthridin-hydrochtorid]",6.17
13,"CCOc1cc2c(cc1OCC)[C@@H]1CCCC[C@@H]1N=C2c1ccc(Cc2ccccc2)cc1 (racemic) [Verbindung 14, (+/-)-cis-6-(4-Benzylphenyl)-8,9-diethoxy-1,2,3,4,4a,10b-hexahydrophenanthridin]",8.08
14,"COc1cc2c(cc1OC)[C@H]1CCCC[C@H]1N=C2c1ccc(N(S(=O)(=O)c2ccc(C)cc2)S(=O)(=O)c2ccc(C)cc2)cc1 (racemic) [Verbindung 33, (+/-)-cis-8,9-Dimethoxy-6-[4-bis(p-toluolsulfonyl)aminophenyl]-1,2,3,4,4a,10b-hexahydrophenanthridin]",7.27
15,"CCOc1cc2c(cc1OCC)[C@@H]1CCCC[C@@H]1N=C2c1ccc(O)cc1 (racemic) [Verbindung 37, (+/-)-cis-8,9-Diethoxy-6-(4-hydroxyphenyl)-1,2,3,4,4a,10b-hexahydrophenanthridin]",8.04
16,"COc1cc2c(cc1OC)[C@@H]1CCCC[C@@H]1N=C2c1ccc([N+](=O)[O-])cc1 (racemic) [Verbindung 5, (+/-)-cis-8,9-Dimethoxy-6-(4-nitrophenyl)-1,2,3,4,4a,10b-hexahydrophenanthridin]",7.22
17,"COc1cc2c(cc1OC)C1C3CCC(CC3)C1N=C2c1ccc(NS(=O)(=O)c2ccc(C)cc2)cc1 (racemic) [Verbindung 12, (+/-)-trans-8,9-Dimethoxy-1,4-ethano-6-(4-p-toluolsulfonamidophenyl)-1,2,3,4,4a,10bhexahydrophenanthridin]",5.77
